The source of these data is patent US20230263822A1, “MODULATION OF FACTOR 11 EXPRESSION” (Ionis Pharmaceuticals, Inc., priority 2008, published 2023).

The subject of one data set is human Factor 11 mRNA. Nature of the data set: Dose-dependent inhibition of human Factor 11 in HepG2 cells, electroporation 625-20,000 nM (Example 5). Type of data set: cell-based. To be noted: ~16 hours. How it is done: The gapmers were also transfected via electroporation and their dose dependent inhibition of human Factor 11 mRNA was measured. Cells were plated at a density of 20,000 cells per well and transfected via electroporation with 625 nM, 1250 nM, 2500 nM, 5,000 nM, 10,000 nM, and 20,000 nM concentrations of antisense oligonucleotide, as specified in Table 12. After a treatment period of approximately 16 hours, RNA was isolated from the cells and human Factor 11 mRNA levels were measured by quantitative real-time PCR. Human Factor 11 primer probe set RTS 2966 was used to measure mRNA levels. Factor 11 mRNA levels were adjusted according to total RNA content, as measured by RIBOGREEN. Results are presented as percent inhibition of human Factor 11, relative to untreated control cells.

Data set [1] is described as follows: Tolerability in CD1 mice: organ weight (Example 33). To be noted: 50 mg/kg s.c. twice a week, vs PBS control, normalized to body weight. Type of data set: in vivo. How it is done: Three days after the last dose was administered to all groups, the mice were sacrificed.
Details of data set [2]: species or system CD1 mice. The following applies: mouse, in vivo. As to the method: Five mice from each group were sacrificed 3 days, 28 days and 56 days following the final dose. Livers were harvested for analysis.
The concentration of the full-length oligonucleotide as well as the total oligonucleotide concentration (including the degraded form) was measured. The method used is a modification of previously published methods (Leeds et al., 1996; Geary et al., 1999) which consist of a phenol-chloroform (liquid-liquid) extraction followed by a solid phase extraction. An internal standard (ISIS 355868, a 27-mer 2′-O-methoxyethyl modified phosphorothioate oligonucleotide, […], designated herein as SEQ ID NO: 270) was added prior to extraction. […] Half-lives were then calculated using WinNonlin software ([…]).
The results are presented in Tables 68 and 69, expressed as μg/g liver tissue.

With “417002 (antisense GGTGCACAGTTTCTGGCAGG; 2-13-5 gapmer chemistry, further chemistry not given here) [compound 417002]”, the “percent inhibition of human Factor 11 mRNA relative to untreated control cells” value in the data set on human Factor 11 mRNA (625 nM) turned out to be 59%; in the data set on human Factor 11 mRNA (1250 nM), 72%; with human Factor 11 mRNA (2500 nM), 86%; in the data set with human Factor 11 mRNA (5000 nM), 90%; with human Factor 11 mRNA (10000 nM) it was 94%; in the data set with human Factor 11 mRNA (20000 nM) it was 96%. In addition, the entries for the “Percent change in kidney weight” value in data set [1] (2 weeks), in data set [1] (4 weeks) and in data set [1] (6 weeks) were “+3%”, −5% and −2%, respectively. For the same substance, the figures for the “Percent change in liver weight” value in data set [1] (2 weeks), in data set [1] (4 weeks) and in data set [1] (6 weeks) were “+14%”, “+8%” and “+35%”, respectively. In addition, the figures for the “Percent change in spleen weight” value in data set [1] (2 weeks), in data set [1] (4 weeks) and in data set [1] (6 weeks) were “+29%”, “+26%” and “+108%”, respectively. Moreover, the “Half-Life in the liver” value in data set [2] was 11 days.
For the substance “417003 (antisense TGGTGCACAGTTTCTGGCAG; 2-13-5 gapmer chemistry, further chemistry not given here) [compound 417003]”, the “percent inhibition of human Factor 11 mRNA relative to untreated control cells” value is given as 60% in the data set on human Factor 11 mRNA (625 nM); 74% in the data set with human Factor 11 mRNA (1250 nM); 86% with human Factor 11 mRNA (2500 nM); 90% in the data set on human Factor 11 mRNA (5000 nM); 95% with human Factor 11 mRNA (10000 nM); 95% with human Factor 11 mRNA (20000 nM). Besides, the “Percent change in kidney weight” value in data set [1] (2 weeks) was −9%; in data set [1] (4 weeks), −2%; in data set [1] (6 weeks), −1%. Also, the “Percent change in liver weight” value in data set [1] (2 weeks) is “+8%”; in data set [1] (4 weeks) it was “+42%”; in data set [1] (6 weeks), “+32%”. The entries for the “Percent change in spleen weight” value in data set [1] (2 weeks), in data set [1] (4 weeks) and in data set [1] (6 weeks) were “+12%”, “+101%” and “+98%”, respectively. Also, in data set [2], the “Half-Life in the liver” value came out at 10 days.
